Laboratory results as given in patent publication US10238688B2, “Combination therapies for bladder cancer” (GENEDIA BIOTECH CO. LTD., priority 2015, dated 2019).

How the values were obtained:
[1] = test system: 5637; experiment: MTT cell survival / IC50, 5637 cells; type: cell-based, human; conditions: 5637; for Single drug 4X Cell Survival (%): ng/ml: EH 1000, Ci 6000, Mi 800, Pi 160, Pa 640, Ge 20, EH/Ci/Mi regimen; for Cell survival (%): Table S3, ng/ml: Pi 40, Pa 160, EH 250, Ci 1500, Mi 200, 1=Ci/Mi, 2=EH/Ci/Mi, 3=Pa/Ci/Mi, 4=Pi/Ci/Mi
Description: (§1) The clinical grade of the chemotherapeutics (NCI Dictionary of Cancer Terms) was provided by the First Affiliated Hospital of Harbin Medical University: Pirarubicin (Pi, Wanle, Shenzhen), Paclitaxel (Pa, Taiji, Sichuan), Adriamycin (Ad, Pfizer, Jiangsu), Epirubicin Hydrochloride (EH, Haizheng, Zhejiang), Hydroxycamptothecin (Hy, Lishizhen, Hubei), Cisplatin (Ci, Haosen, Jiangsu), Gemcitabine (Ge, Haosen, Jiangsu) and Mitomycin (Mi, Haizheng, Zhejiang). The drug induced cell death was determined by a thiazolyl […] (MTT, 490 nm reading) based cell proliferation assay in the cultured cells following treatment by various concentrations of drugs for 72 hours. The relative chemoresistance to each drug of all cell lines was calculated with the lowest IC50 as a reference. The overall chemoresistance of each cell line was described as “chemoresistance index”, the numerator of the total relative IC50 to all the drugs over the number of drugs to rank the overall resistance state of each cell line to the six chemotherapeutics collectively.
(§2) The relative IC50 (fold) of each drug of all nine cell lines was normalized to the lowest IC50 in the most sensitive cell line (FIG. 2G), to describe the single drug resistance of cell lines. The overall chemoresistance of each cell line, a “chemoresistance index” (the numerator of the total relative IC50 over the number of drugs) (FIG. 2G) were calculated to rank the overall resistance state of each cell line to this six chemotherapeutics.
(§3) Twenty six-drug combinations at the indicated doses were initially generated through a random number generator (using MATLAB MathWorks©, Natick, Mass., U.S.) (The upper half of Table 1). The cell survival (% over the not drug control) of treated cells was determined and then used for a calculation of the average cumulative cell survival (%, ACS: the sum of cell survival (%) per combination divided by the number of cell lines tested). ACS<30% was used to separate the effective from the not-effective combinations.

[2] = test system: H-bc; experiment: MTT cell survival / IC50, H-bc cells; type: cell-based, human; conditions: H-bc; for Single drug 4X Cell Survival (%): ng/ml: EH 1000, Ci 6000, Mi 800, Pi 160, Pa 640, Ge 20, EH/Ci/Mi regimen; for Cell survival (%): Table S3, ng/ml: Pi 40, Pa 160, EH 250, Ci 1500, Mi 200, 1=Ci/Mi, 2=EH/Ci/Mi, 3=Pa/Ci/Mi, 4=Pi/Ci/Mi
Description: as §1, §2, §3

[3] = test system: T24; experiment: MTT cell survival / IC50, T24 cells; type: cell-based, human; conditions: for Single drug 4X Cell Survival (%): ng/ml: EH 1000, Ci 6000, Mi 800, Pi 160, Pa 640, Ge 20, EH/Ci/Mi regimen; for Cell survival (%): Table S3, ng/ml: Pi 40, Pa 160, EH 250, Ci 1500, Mi 200, 1=Ci/Mi, 2=EH/Ci/Mi, 3=Pa/Ci/Mi, 4=Pi/Ci/Mi
Description: as §1, §2, §3

[4] = test system: EJ; experiment: MTT cell survival / IC50, EJ cells; type: cell-based, human; conditions: for Single drug 4X Cell Survival (%): ng/ml: EH 1000, Ci 6000, Mi 800, Pi 160, Pa 640, Ge 20, EH/Ci/Mi regimen; for Cell survival (%): Table S3, ng/ml: Pi 40, Pa 160, EH 250, Ci 1500, Mi 200, 1=Ci/Mi, 2=EH/Ci/Mi, 3=Pa/Ci/Mi, 4=Pi/Ci/Mi
Description: as §1, §2, §3

[5] = test system: Biu87; experiment: MTT cell survival / IC50, Biu87 cells; type: cell-based, human; conditions: Biu87; for Single drug 4X Cell Survival (%): ng/ml: EH 1000, Ci 6000, Mi 800, Pi 160, Pa 640, Ge 20, EH/Ci/Mi regimen; for Cell survival (%): Table S3, ng/ml: Pi 40, Pa 160, EH 250, Ci 1500, Mi 200, 1=Ci/Mi, 2=EH/Ci/Mi, 3=Pa/Ci/Mi, 4=Pi/Ci/Mi
Description: as §1, §2, §3

[6] = test system: UM-UC-3; experiment: MTT cell survival / IC50, UM-UC-3 cells; type: cell-based, human; conditions: UM-UC-3; for Single drug 4X Cell Survival (%): ng/ml: EH 1000, Ci 6000, Mi 800, Pi 160, Pa 640, Ge 20, EH/Ci/Mi regimen; for Cell survival (%): Table S3, ng/ml: Pi 40, Pa 160, EH 250, Ci 1500, Mi 200, 1=Ci/Mi, 2=EH/Ci/Mi, 3=Pa/Ci/Mi, 4=Pi/Ci/Mi
Description: as §1, §2, §3

[7] = test system: SCaBER; experiment: MTT cell survival / IC50, SCaBER squamous carcinoma cells; type: cell-based, human; conditions: for Single drug 4X Cell Survival (%): ng/ml: EH 1000, Ci 6000, Mi 800, Pi 160, Pa 640, Ge 20, EH/Ci/Mi regimen; for Cell survival (%): Table S3, ng/ml: Pi 40, Pa 160, EH 250, Ci 1500, Mi 200, 1=Ci/Mi, 2=EH/Ci/Mi, 3=Pa/Ci/Mi, 4=Pi/Ci/Mi
Description: as §1, §2

[8] = test system: SV-HUC-1; type: cell-based; conditions: SV-HUC-1; ng/ml: EH 1000, Ci 6000, Mi 800, Pi 160, Pa 640, Ge 20; EH/Ci/Mi regimen
Description: as §1, §2

[9] = test system: bladder cancer cell lines; experiment: Average cumulative cell survival (ACS) over the panel of cell lines tested; type: cell-based, human; conditions: for ACS (%) for cancer cells: seven cancer cell lines, ng/ml: EH 1000, Ci 6000, Mi 800, Pi 160, Pa 640, Ge 20, EH/Ci/Mi regimen; for ACS (%): eight cell lines, Table S3, ng/ml: Pi 40, Pa 160, EH 250, Ci 1500, Mi 200, 1=Ci/Mi, 2=EH/Ci/Mi, 3=Pa/Ci/Mi, 4=Pi/Ci/Mi
Description: as §1
The “Differential Evolution” algorithm guided experimental optimization (DE) consisted of three iterative operations: generating drug combinations of experimental testing, acquiring the efficacy of the generated drug combinations with biological assays and recalculating further improved drug combinations using a feedback search algorithm. This example first tested twenty drug combinations at randomized doses. These drug combinations were generated from a random integer matrix generator, coded in MATLAB™ language. These twenty drug combinations were then experimentally tested for cancer cell cytotoxicity. The experimental data were then subjected to calculation with a DE algorithm for new drug combinations based on three major mathematical calculations: “Mutation”, “Crossover” and “Selection”. The equations for each step can be found in the main test. The equations for each step are coded in MATLAB™ language.
as §3, with “combinations. Nine of the twenty combinations tested in the 1st round of iteration fell into this category (the lower half of Table 1).” for “combinations.”

[10] = test system: J-82; experiment: MTT cell survival / IC50, J-82 cells; type: cell-based, human; conditions: J82; Table S3; ng/ml: Pi 40, Pa 160, EH 250, Ci 1500, Mi 200; 1=Ci/Mi, 2=EH/Ci/Mi, 3=Pa/Ci/Mi, 4=Pi/Ci/Mi
Description: as §1, §2, §3

Row | SMILES | Single drug 4X Cell Survival (%) [1] [%] | Single drug 4X Cell Survival (%) [2] [%] | Single drug 4X Cell Survival (%) [3] [%] | Single drug 4X Cell Survival (%) [4] [%] | Single drug 4X Cell Survival (%) [5] [%] | Single drug 4X Cell Survival (%) [6] [%] | Single drug 4X Cell Survival (%) [7] [%] | Single drug 4X Cell Survival (%) [8] [%] | ACS (%) for cancer cells [9] [%] | Cell survival (%) [1] [%] | Cell survival (%) [2] [%] | Cell survival (%) [10] [%] | Cell survival (%) [3] [%] | Cell survival (%) [4] [%] | Cell survival (%) [5] [%] | Cell survival (%) [6] [%] | Cell survival (%) [7] [%] | ACS (%) [9] [%]
1 | Nc1ccn([C@@H]2O[C@H](CO)[C@@H](O)C2(F)F)c(=O)n1 [Ge, Gemcitabine] | 30.06 | 83.17 | 41.49 | 31.95 | 30.82 | 46.97 | 30.87 | 87.83 | 42.19 | – | – | – | – | – | – | – | – | –
2 | CC(=O)O[C@H]1C(=O)[C@@]2(C)[C@H]([C@H](OC(=O)c3ccccc3)[C@]3(O)C[C@H](OC(=O)[C@H](O)[C@@H](NC(=O)c4ccccc4)c4ccccc4)C(C)=C1C3(C)C)[C@]1(OC(C)=O)CO[C@@H]1C[C@@H]2O [Pa, Paclitaxel] | 2.09 | 12.89 | 17.31 | 26.38 | 17.58 | 27.74 | 42.21 | 80.17 | 20.89 | 6.45 | 13.96 | 38.51 | 11.55 | 33.05 | 23.08 | 40.09 | 57.91 | 28.08
3 | COc1cccc2c1C(=O)c1c(O)c3c(c(O)c1C2=O)C[C@@](O)(C(=O)CO)CC3O[C@H]1C[C@H](N)[C@H](O[C@@H]2CCCCO2)[C@H](C)O1 (stereo partly drawn) [Pi, (3S)-3-glycoloyl-3,5,12-trihydroxy-10-methoxy-6,11-dioxo-1,2,3,4,6,11-hexahydrotetracen-1-yl 3-amino-2,3,6-trideoxy-4-O-[(2R)-tetrahydro-2H-pyran-2-yl]-α-L-lyxo-hexopyranoside] | 3.48 | 16.04 | 39.8 | 21.25 | 26.98 | 31.44 | 10.24 | 91.79 | 21.32 | 29.22 | 86.89 | 55.37 | 48.33 | 30.38 | 41.67 | 65.59 | 30.04 | 48.44
